Read-outs that look alike come from different tables or passages of the source.
Key:
[1] = cited from earlier work; for Corresponding Cmax: po
[2] = test system: Ancylostoma caninum L3, triple-anthelmintic-resistant (BCR) isolate; assay: In vitro L3 larval survival assay, triple-anthelmintic-resistant BCR isolate; format: cell-based; conditions: for Difference in mean survival between BCR and WMD: BCR versus WMD L3, across all tested concentrations (4–40 µg/mL), two-tailed unpaired t-test, p < 0.0001
Description: (§1) The wild-type (WMD) and triple-anthelmintic-resistant (BCR) isolates of A. caninum used in this study have been previously described. […] Both isolates were maintained in beagles according to established protocols.
(§2) Stock solutions of pyrantel, ivermectin, and emodepside were prepared in appropriate solvent mixtures of DMSO and BU buffer (50 mM Na2HPO4, 22 mM KH2PO4, 70 mM NaCl, pH 6.8). To account for solubility differences, pyrantel was prepared in 20% DMSO, ivermectin in 4% DMSO, and emodepside in 25% DMSO. Penitrem A was dissolved in 100% DMSO to make a 500 µM stock solution. A vehicle control solution was also prepared for each drug, containing the maximum DMSO concentration used in the stock solutions to ensure that solvent effects across treatments were adequately controlled.
(§3) Infective A. caninum L3 were collected from coproculture at least 7 days post-culture using a modified Baermann method and stored in BU in a 50 mL culture flask at room temperature for up to four weeks prior to use. The survival assay to evaluate the response of A. caninum L3 to various anthelmintics was adapted from a previously established motility assessment study.
(§4) Prior to use, L3 were surface sterilized by incubation in 1% (v/v) HCl for 30 min, followed by two washes with sterile BU buffer. The sterilized larvae were resuspended in BU to a concentration of 75 L3 per 90 µL. Larvae were transferred in aliquots of 90 µL to individual wells in a 96-well plate, and 10 µL of the appropriate drug or control solution was added to each well, bringing the final volume to 100 µL. Plates were incubated at room temperature in the dark for 24 h.
(§5) Following incubation, survival was assessed by adding 50 microliters of 50° C water to each well immediately before counting. […] For each well, the total number of living and dead L3 were counted, and percent survival was calculated as below:(1) Survival (%)=[…]
(§6) Microsoft Excel was used to normalize raw survival percentages to their respective controls and calculate standard deviation for each condition. Statistical analysis was performed using GraphPad Prism (ver. 10, GraphPad Software, La Jolla, CA, USA). Using the mean, standard deviation, and sample size calculated in Excel, multiple unpaired t-tests were performed to determine the individual variance in means between WMD and BCR.

[3] = test system: Ancylostoma caninum L3, drug-susceptible (WMD) isolate; assay: In vitro L3 larval survival assay, drug-susceptible WMD isolate; format: cell-based
Description: as §1, §2, §3, §4, §5, §6

MADR A. caninum = test system: MADR A. caninum; design: method as in PMID 36520649; conditions: dogs infected with MADR A. caninum; cited from earlier work
[4] = stated without reference; cited from earlier work
[5] = test system: Ancylostoma caninum L3, drug-susceptible (WMD) isolate; assay: Emodepside + penitrem A survival assay (SLO-1 modulation), WMD isolate; format: cell-based; conditions: 0.25 µM penitrem A + emodepside 7.5 µg/mL, 24 h, mean ± SD
Description: as §4, §5
(§7) To further investigate the specific mechanism of emodepside action, the SLO-1 channel inhibitor penitrem A was co-incubated with emodepside. The concentration of emodepside was kept constant (7.5 µg/mL) while that of penitrem A was titrated from 1 µM to 0.05 µM. […] Survival was assessed as above.
as §6, with “Statistical analysis was performed using GraphPad Prism (ver. 10, GraphPad Software, La Jolla, CA, USA).” left out

[6] = test system: Ancylostoma caninum L3, triple-anthelmintic-resistant (BCR) isolate; assay: Emodepside + penitrem A survival assay (SLO-1 modulation), BCR isolate; format: cell-based; conditions: 0.25 µM penitrem A + emodepside 7.5 µg/mL, 24 h, mean ± SD
Description: as §4, §5, §7
as §6, with “Statistical analysis was performed using GraphPad Prism (ver. 10, GraphPad Software, La Jolla, CA, USA).” left out

In the case of `CN1CCCN=C1/C=C/c1cccs1` [Pyrantel, pyrantel pamoate], the Cmax ([1]; in vivo, 100 mg/kg) is listed as 110 ng/mL, the “Corresponding Cmax” value ([1]; in vivo) is listed as 110 ng/mL and the “Percent survival of L3, normalized to vehicle control” value (from here on “Percent survival of L3, normalized”) ([2]; BCR L3, 100 µg/mL, 24 h, room temperature, dark, mean ± SD, difference to WMD not significant (p = 0.054)) is listed as 59.2±10.4%. The “Mortality of L3” value ([2]; BCR L3, 10–50 µg/mL, 24 h) was “almost no mortality”, the “Percent survival of L3, normalized” value ([3]; 100 µg/mL, 24 h, room temperature, dark, mean ± SD) was 43.9±13.7% and the “Mortality of L3” value ([3]; 10–50 µg/mL, 24 h) was “almost no mortality”.
In the case of emodepside, the “Corresponding Cmax” value ([1]; in vivo) is listed as 37 ng/mL, the “Surviving L3” value ([2]; BCR L3, 30 µg/mL (maximum dose tested), 24 h) is listed as “none” and the “IC50 (nonlinear regression of percent survival vs log concentration)” value ([2]; BCR L3, 24 h survival) is listed as 1.77 µg/mL. For the same compound, the “Percent survival of L3” value ([2]; BCR L3, starting at 7.5 µg/mL, 24 h) was “killed all BCR larvae”, the “Difference in percent survival between WMD and BCR” value ([2]; WMD versus BCR L3, 3 µg/mL (greatest difference)) was 21.8±4.4 and the “Percent survival of L3, normalized” value ([3]; 7.5 µg/mL, 24 h, mean ± SD) was 13.1% ± 4.1. For the same compound, the “Percent survival of L3, normalized” value ([3]; 30 µg/mL (maximum dose tested), 24 h, mean ± SD) was 3.4% ± 3.3, the “IC50 (nonlinear regression of percent survival vs log concentration)” value ([3]; 24 h survival) was 2.81 µg/mL and the “Greater effectiveness than drugs from other classes in reducing fecal egg count” value (MADR A. caninum) was “at least 50%”.
In the case of ivermectin, the Cmax ([1]; typical therapeutic dose 150–200 mg/kg, single oral administration) is listed as 38 to 46 ng/mL, the “Normalized survival of L3” value ([2]; BCR L3, low dose 4 µg/mL, 24 h, room temperature, dark, mean ± SD) is listed as 54.2±11.4% and the “Difference in mean survival between BCR and WMD” value [2] is listed as 39.0 ± 3.0%. The “Difference in mean survival between BCR and WMD” value ([2]; listed as ivermectin) was “approximately 40%”, the Aqueous solubility [4] was less than 10 µg/mL and the “Normalized survival of L3” value ([3]; low dose 4 µg/mL, 24 h, room temperature, dark, mean ± SD) was 14.9±9.7%.
With penitrem A the “Percent survival of L3 co-incubated with emodepside” value [5] was 29.8% ± 11.5 and the “Percent survival of L3 co-incubated with emodepside” value [6] was 78.2% ± 13.8.
